{"source": "patent US11673897B2", "about": "“Compounds for the treatment of kinase-dependent disorders” (Exelixis, Inc., priority 2018, dated 2023)", "format_in_all_cases": "cell-based", "key": {"AXL": {"biological_target": "AXL (Homo sapiens (Human), UniProt P30530)", "sequence (P30530 26-894)": "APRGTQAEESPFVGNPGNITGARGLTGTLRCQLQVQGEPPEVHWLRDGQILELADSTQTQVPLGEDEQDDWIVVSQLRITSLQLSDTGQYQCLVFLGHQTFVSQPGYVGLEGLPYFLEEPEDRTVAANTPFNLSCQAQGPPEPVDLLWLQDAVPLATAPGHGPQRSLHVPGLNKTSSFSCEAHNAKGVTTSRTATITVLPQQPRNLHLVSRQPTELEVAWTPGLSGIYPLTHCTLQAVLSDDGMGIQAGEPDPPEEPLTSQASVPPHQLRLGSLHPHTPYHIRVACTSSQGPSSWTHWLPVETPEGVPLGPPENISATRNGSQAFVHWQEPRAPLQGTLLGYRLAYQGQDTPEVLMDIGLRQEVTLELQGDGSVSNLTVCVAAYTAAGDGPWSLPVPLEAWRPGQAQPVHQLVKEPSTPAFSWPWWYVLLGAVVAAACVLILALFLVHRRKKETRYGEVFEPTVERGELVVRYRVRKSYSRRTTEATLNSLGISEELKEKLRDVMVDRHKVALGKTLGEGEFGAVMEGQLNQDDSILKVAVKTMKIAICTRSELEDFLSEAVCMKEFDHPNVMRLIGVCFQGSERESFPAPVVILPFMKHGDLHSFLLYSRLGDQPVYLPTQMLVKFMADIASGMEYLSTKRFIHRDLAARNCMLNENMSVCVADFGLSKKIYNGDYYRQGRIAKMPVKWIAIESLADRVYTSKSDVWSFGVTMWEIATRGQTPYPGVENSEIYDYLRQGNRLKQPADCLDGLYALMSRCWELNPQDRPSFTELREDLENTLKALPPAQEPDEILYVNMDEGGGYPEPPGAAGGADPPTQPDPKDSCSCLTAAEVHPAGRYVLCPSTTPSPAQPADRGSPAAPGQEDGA", "test": "AXL autophosphorylation ELISA in A-172 cells", "conditions": "cellular, Gas6-stimulated, phospho-AXL ELISA", "procedure,_shortened": "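A-172 glioblastoma cells, serum-starved 24 h, took compounds for 1 h (8-point curve, 0.3% DMSO) before 15 min stimulation with 1 μg/mL recombinant human Gas6. Lysate phospho-AXL measured by ELISA against a phospho-AXL standard, normalized to DMSO (100%) and reference inhibitor (0%); IC50 from 4-parameter logistic fit.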"}, "Mer": {"biological_target": "Mer (Homo sapiens (Human), UniProt Q12866)", "sequence (Q12866 21-999)": "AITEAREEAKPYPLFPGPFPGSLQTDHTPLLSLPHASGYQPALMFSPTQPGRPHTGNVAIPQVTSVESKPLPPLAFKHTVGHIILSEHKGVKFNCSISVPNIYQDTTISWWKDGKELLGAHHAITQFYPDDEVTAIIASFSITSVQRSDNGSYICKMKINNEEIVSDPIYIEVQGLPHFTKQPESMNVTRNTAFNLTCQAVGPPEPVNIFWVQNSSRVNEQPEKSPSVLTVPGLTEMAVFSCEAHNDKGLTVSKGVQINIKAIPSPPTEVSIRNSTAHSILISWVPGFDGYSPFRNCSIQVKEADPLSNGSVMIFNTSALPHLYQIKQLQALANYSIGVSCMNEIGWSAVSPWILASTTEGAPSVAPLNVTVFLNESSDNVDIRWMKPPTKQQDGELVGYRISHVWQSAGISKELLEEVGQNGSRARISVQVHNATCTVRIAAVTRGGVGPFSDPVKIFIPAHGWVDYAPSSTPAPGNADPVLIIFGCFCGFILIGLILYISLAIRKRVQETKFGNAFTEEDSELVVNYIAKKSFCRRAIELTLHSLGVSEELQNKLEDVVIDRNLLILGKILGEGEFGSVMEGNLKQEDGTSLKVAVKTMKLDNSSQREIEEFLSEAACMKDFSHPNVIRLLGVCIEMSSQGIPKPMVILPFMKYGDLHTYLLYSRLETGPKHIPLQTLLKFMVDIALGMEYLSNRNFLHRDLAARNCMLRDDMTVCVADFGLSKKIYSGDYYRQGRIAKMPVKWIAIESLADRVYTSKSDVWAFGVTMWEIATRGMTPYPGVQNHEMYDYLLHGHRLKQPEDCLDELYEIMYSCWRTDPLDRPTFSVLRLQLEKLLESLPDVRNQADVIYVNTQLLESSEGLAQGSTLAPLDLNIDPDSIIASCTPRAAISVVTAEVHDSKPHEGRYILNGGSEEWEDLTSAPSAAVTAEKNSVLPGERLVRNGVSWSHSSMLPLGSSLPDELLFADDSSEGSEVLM", "test": "Mer autophosphorylation ELISA in transient transfected 293A cells", "conditions": "cellular, MERTK-transfected 293A cells, phospho-Mer ELISA", "protocol": "293A cells (Thermo Fisher #R70507) were seeded at 1.5×10^6 cells/well onto 100 mm dish (Greiner #664169), in DMEM (Thermo Fisher #11995-040) containing 10% FBS (Thermo Fisher #26140-079), 1% MEM NEAA (Thermo Fisher #11140-050), 1% GlutaMax (Thermo Fisher #35050-061), and 1% Penicillin Streptomycin (Thermo Fisher #15140-122). 293A cells were incubated at 37° C., 5% CO2 for 24 h and then transfected with 6 μg MERTK DNA (Genecopoeia #EX-Z8208-M02) using TransIT LT1 transfection reagent (Mirus-Bio #MIR2305). After 24 h incubation, the transfected 293A cells were seeded at 1×10^5 cells/well onto 96-well plates (Corning #3904) in DMEM growth medium overnight. Test compounds were serially diluted to produce an 8-point dose curve in fresh serum-free medium to a final concentration of 0.3% DMSO (vehicle) and added to the cells and incubated for 1 h. Cells were then immediately lysed with 150 μL of cold 1× lysis buffer [20 mM Tris, 137 mM sodium chloride, 2 mM EDTA, 10% glycerol, 1% NP-40 alternative, 1 mM activated sodium orthovanadate, 1 mM PefaBloc SC (Sigma-Aldrich #11429868001), protease/phosphatase inhibitor tablet (Thermo Fisher #A32959)]. Lysates were clarified by centrifugation and 50 μL/well added into the human phospho-Mer DuoSet IC ELISA (R&D Systems #DYC2579-2). Assay was performed according to manufacturer's instructions and sample phospho-Mer concentrations were extrapolated using human phospho-Mer control (R&D Systems #841793) as a standard. Positive control wells (100% activity) contained DMSO-treated cell lysates. Negative control wells (0% activity) contained reference inhibitor-treated cell lysates. IC50 values were calculated by nonlinear regression analysis using a 4-parameter logistic curve fit in ActivityBase XE (IDBS)."}, "Met": {"biological_target": "Met (Homo sapiens (Human), UniProt P08581)", "sequence (P08581 25-1390)": "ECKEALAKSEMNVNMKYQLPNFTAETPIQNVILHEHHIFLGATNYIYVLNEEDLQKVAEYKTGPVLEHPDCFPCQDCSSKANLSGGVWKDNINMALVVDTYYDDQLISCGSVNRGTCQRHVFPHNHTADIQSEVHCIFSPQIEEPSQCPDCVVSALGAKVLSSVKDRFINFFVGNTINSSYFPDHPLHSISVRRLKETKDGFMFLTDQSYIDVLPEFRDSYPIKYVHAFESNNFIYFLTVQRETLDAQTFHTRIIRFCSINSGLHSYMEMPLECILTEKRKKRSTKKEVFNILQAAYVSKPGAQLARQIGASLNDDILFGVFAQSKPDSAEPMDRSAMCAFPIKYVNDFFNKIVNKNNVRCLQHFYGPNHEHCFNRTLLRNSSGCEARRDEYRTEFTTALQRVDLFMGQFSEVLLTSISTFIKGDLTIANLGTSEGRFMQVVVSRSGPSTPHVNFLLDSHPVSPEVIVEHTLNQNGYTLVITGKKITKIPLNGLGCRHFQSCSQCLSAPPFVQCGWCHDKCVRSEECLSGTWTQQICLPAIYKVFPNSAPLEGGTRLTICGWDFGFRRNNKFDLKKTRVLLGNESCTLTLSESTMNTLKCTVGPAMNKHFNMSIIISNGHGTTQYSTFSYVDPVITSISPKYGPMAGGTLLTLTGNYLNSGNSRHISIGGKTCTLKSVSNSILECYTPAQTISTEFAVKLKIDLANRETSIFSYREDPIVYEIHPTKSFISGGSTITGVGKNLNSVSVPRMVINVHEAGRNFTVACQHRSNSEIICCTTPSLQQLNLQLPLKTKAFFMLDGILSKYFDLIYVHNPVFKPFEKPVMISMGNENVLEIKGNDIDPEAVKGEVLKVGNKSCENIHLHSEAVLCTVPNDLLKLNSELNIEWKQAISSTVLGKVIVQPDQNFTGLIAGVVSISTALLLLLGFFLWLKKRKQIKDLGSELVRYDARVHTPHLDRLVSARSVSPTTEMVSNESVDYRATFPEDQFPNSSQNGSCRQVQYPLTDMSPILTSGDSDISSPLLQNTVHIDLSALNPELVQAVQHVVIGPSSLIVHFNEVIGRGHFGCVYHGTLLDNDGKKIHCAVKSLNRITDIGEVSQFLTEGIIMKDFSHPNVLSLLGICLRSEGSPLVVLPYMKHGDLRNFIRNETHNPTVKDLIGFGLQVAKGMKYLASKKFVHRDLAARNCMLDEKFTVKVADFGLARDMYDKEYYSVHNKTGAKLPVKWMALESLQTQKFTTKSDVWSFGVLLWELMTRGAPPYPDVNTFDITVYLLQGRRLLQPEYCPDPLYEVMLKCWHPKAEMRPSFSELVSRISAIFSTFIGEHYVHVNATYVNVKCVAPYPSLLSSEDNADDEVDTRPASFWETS", "test": "Met autophosphorylation ELISA in PC-3 cells", "conditions": "cellular, HGF-stimulated, phospho-Met ELISA, read-out: c-Met IC50", "procedure,_shortened": "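PC-3 cells serum-starved 3 h were treated 1 h with an 8-point compound series (0.3% DMSO), then stimulated 10 min with 100 ng/mL human HGF. Phospho-Met (panTyr) in lysates was measured by sandwich ELISA against DMSO (100%) and reference-inhibitor (0%) controls, and IC50 came from a 4-parameter logistic fit.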"}, "KDR": {"biological_target": "KDR (Homo sapiens (Human), UniProt P35968)", "sequence (P35968 20-1356)": "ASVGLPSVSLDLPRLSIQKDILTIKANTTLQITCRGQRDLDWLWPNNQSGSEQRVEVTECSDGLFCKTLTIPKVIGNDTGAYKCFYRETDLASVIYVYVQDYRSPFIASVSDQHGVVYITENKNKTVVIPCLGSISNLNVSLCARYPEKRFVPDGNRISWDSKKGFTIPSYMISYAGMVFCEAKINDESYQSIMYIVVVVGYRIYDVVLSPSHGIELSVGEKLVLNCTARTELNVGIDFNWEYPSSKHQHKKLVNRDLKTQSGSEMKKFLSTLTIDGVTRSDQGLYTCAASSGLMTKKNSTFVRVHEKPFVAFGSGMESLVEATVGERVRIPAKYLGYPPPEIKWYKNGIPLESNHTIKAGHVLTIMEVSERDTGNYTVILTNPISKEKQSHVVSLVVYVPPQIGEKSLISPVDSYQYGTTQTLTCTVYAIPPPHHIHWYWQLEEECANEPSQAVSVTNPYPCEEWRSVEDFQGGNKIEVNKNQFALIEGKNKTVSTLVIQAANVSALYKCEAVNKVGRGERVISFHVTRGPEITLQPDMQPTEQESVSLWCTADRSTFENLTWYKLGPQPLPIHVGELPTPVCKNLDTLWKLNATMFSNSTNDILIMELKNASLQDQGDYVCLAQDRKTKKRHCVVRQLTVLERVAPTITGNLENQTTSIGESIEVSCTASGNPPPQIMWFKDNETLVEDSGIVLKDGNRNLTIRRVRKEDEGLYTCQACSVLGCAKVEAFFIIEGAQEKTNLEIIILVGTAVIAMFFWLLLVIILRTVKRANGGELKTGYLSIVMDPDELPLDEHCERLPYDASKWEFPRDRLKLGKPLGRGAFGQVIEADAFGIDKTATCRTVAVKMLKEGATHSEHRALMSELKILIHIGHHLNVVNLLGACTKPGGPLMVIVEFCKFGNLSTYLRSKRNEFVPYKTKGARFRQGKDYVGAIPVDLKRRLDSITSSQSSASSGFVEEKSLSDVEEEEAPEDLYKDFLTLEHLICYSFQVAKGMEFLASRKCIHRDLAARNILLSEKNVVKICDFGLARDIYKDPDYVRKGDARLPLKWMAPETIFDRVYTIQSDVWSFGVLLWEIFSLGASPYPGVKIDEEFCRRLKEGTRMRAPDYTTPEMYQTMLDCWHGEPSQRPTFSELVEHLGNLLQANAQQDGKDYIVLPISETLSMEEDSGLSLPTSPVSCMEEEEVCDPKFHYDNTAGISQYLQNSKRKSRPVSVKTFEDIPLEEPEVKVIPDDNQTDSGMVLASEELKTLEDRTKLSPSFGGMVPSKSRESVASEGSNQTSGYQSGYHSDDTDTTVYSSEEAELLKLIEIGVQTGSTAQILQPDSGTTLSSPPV", "test": "KDR autophosphorylation ELISA in HUVEC cells", "conditions": "cellular, VEGF165-stimulated, phospho-KDR ELISA", "procedure,_shortened": "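HUVECs grown 24 h at 37 °C, then serum-starved 24 h, were preincubated 1 h with an 8-point compound series (0.3% DMSO) and stimulated with 100 ng/mL human VEGF165 for 5 min. Phospho-KDR in lysates was measured by sandwich ELISA against a phospho-KDR standard; IC50 from 4-parameter logistic fit.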"}}}
{"compound": "COc1cc2nccc(Oc3ccc(NC(=O)C4(C(=O)Nc5ccc(F)cc5)CC4)c(OC)n3)c2nc1OC", "note": "[Compound 86, 1-N′-[6-[(6,7-Dimethoxy-1,5-naphthyridin-4-yl)oxy]-2-methoxypyridin-3-yl]-1-N-(4-fluorophenyl)cyclopropane-1,1-dicarboxamide]", "values": [{"measurement": "IC50", "setting": "AXL", "value": "10 to 100", "unit": "nM"}, {"measurement": "IC50", "setting": "Mer", "value": "10 to 100", "unit": "nM"}, {"measurement": "IC50", "setting": "Met", "value": "100 to 300", "unit": "nM"}, {"measurement": "IC50", "setting": "KDR", "value": "> 300", "unit": "nM"}]}
{"compound": "COc1cc2nccc(Oc3ccc(NC(=O)C4(C(=O)Nc5ccc(F)cc5)CC4)c(C)n3)c2nc1OC", "note": "[Compound 87, 1-N′-[6-[(6,7-Dimethoxy-1,5-naphthyridin-4-yl)oxy]-2-methylpyridin-3-yl]-1-N-(4-fluorophenyl)cyclopropane-1,1-dicarboxamide]", "values": [{"measurement": "IC50", "setting": "AXL", "value": "10 to 100", "unit": "nM"}, {"measurement": "IC50", "setting": "Mer", "value": "> 300", "unit": "nM"}, {"measurement": "IC50", "setting": "Met", "value": "> 300", "unit": "nM"}, {"measurement": "IC50", "setting": "KDR", "value": "> 300", "unit": "nM"}]}
{"compound": "COc1cc2nccc(Oc3nc(F)c(NC(=O)C4(C(=O)Nc5ccc(F)cc5)CC4)cc3F)c2nc1OC", "note": "[Compound 96, 1-N′-[6-[(6,7-Dimethoxy-1,5-naphthyridin-4-yl)oxy]-2,5-difluoropyridin-3-yl]-1-N-(4-fluorophenyl)cyclopropane-1,1-dicarboxamide]", "values": [{"measurement": "IC50", "setting": "AXL", "value": "≤ 10", "unit": "nM"}, {"measurement": "IC50", "setting": "Mer", "value": "10 to 100", "unit": "nM"}, {"measurement": "IC50", "setting": "Met", "value": "10 to 100", "unit": "nM"}, {"measurement": "IC50", "setting": "KDR", "value": "> 300", "unit": "nM"}]}
{"compound": "COCCOc1cc2nccc(Oc3ncc(NC(=O)C4(C(=O)Nc5ccc(F)cc5)CC4)cc3F)c2nc1OC", "note": "[Compound 116, 1-N′-[5-Fluoro-6-[[6-methoxy-7-(2-methoxyethoxy)-1,5-naphthyridin-4-yl]oxy]pyridin-3-yl]-1-N-(4-fluorophenyl)cyclopropane-1,1-dicarboxamide]", "values": [{"measurement": "IC50", "setting": "AXL", "value": "10 to 100", "unit": "nM"}, {"measurement": "IC50", "setting": "Mer", "value": "10 to 100", "unit": "nM"}, {"measurement": "IC50", "setting": "Met", "value": "100 to 300", "unit": "nM"}, {"measurement": "IC50", "setting": "KDR", "value": "> 300", "unit": "nM"}]}
{"compound": "COc1ccc(COc2cc3nccc(Oc4ncc(NC(=O)C5(C(=O)Nc6ccc(F)cc6)CC5)cc4F)c3nc2OC)cc1", "note": "[Compound 120, 1-N′-[5-Fluoro-6-[[6-methoxy-7-[(4-methoxyphenyl)methoxy]-1,5-naphthyridin-4-yl]oxy]pyridin-3-yl]-1-N-(4-fluorophenyl)cyclopropane-1,1-dicarboxamide]", "values": [{"measurement": "IC50", "setting": "AXL", "value": "100 to 300", "unit": "nM"}, {"measurement": "IC50", "setting": "Mer", "value": "> 300", "unit": "nM"}, {"measurement": "IC50", "setting": "Met", "value": "100 to 300", "unit": "nM"}, {"measurement": "IC50", "setting": "KDR", "value": "> 300", "unit": "nM"}]}
{"compound": "COc1nc2c(Oc3ncc(NC(=O)C4(C(=O)Nc5ccc(F)cc5)CC4)cc3F)ccnc2cc1OCCCN1CCOCC1", "note": "[Compound 122, 1-N′-[5-Fluoro-6-[[6-methoxy-7-(3-morpholin-4-ylpropoxy)-1,5-naphthyridin-4-yl]oxy]pyridin-3-yl]-1-N-(4-fluorophenyl)cyclopropane-1,1-dicarboxamide]", "values": [{"measurement": "IC50", "setting": "AXL", "value": "10 to 100", "unit": "nM"}, {"measurement": "IC50", "setting": "Mer", "value": "10 to 100", "unit": "nM"}, {"measurement": "IC50", "setting": "Met", "value": "10 to 100", "unit": "nM"}, {"measurement": "IC50", "setting": "KDR", "value": "> 300", "unit": "nM"}]}
{"compound": "COc1nc2c(Oc3ncc(NC(=O)C4(C(=O)Nc5ccc(F)cc5)CC4)cc3F)ccnc2cc1OCCN1CCOCC1", "note": "[Compound 123, 1-N′-[5-Fluoro-6-[[6-methoxy-7-(2-morpholin-4-ylethoxy)-1,5-naphthyridin-4-yl]oxy]pyridin-3-yl]-1-N-(4-fluorophenyl)cyclopropane-1,1-dicarboxamide]", "values": [{"measurement": "IC50", "setting": "AXL", "value": "10 to 100", "unit": "nM"}, {"measurement": "IC50", "setting": "Mer", "value": "10 to 100", "unit": "nM"}, {"measurement": "IC50", "setting": "Met", "value": "10 to 100", "unit": "nM"}, {"measurement": "IC50", "setting": "KDR", "value": "> 300", "unit": "nM"}]}
{"compound": "COc1nc2c(Oc3ncc(NC(=O)C4(C(=O)Nc5ccc(F)cc5)CC4)cc3F)ccnc2cc1OCC(N)=O", "note": "[Compound 124, 1-N′-[6-[[7-(2-Amino-2-oxoethoxy)-6-methoxy-1,5-naphthyridin-4-yl]oxy]-5-fluoropyridin-3-yl]-1-N-(4-fluorophenyl)cyclopropane-1,1-dicarboxamide]", "values": [{"measurement": "IC50", "setting": "AXL", "value": "100 to 300", "unit": "nM"}, {"measurement": "IC50", "setting": "Mer", "value": "100 to 300", "unit": "nM"}, {"measurement": "IC50", "setting": "Met", "value": "100 to 300", "unit": "nM"}, {"measurement": "IC50", "setting": "KDR", "value": "> 300", "unit": "nM"}]}
{"compound": "COc1nc2c(Oc3ncc(NC(=O)C4(C(=O)Nc5ccc(F)cc5)CC4)cc3F)ccnc2cc1OCCCN(C)C", "note": "[Compound 125, 1-N′-[6-[[7-[3-(Dimethylamino)propoxy]-6-methoxy-1,5-naphthyridin-4-yl]oxy]-5-fluoropyridin-3-yl]-1-N-(4-fluorophenyl)cyclopropane-1,1-dicarboxamide]", "values": [{"measurement": "IC50", "setting": "AXL", "value": "10 to 100", "unit": "nM"}, {"measurement": "IC50", "setting": "Mer", "value": "10 to 100", "unit": "nM"}, {"measurement": "IC50", "setting": "Met", "value": "10 to 100", "unit": "nM"}, {"measurement": "IC50", "setting": "KDR", "value": "> 300", "unit": "nM"}]}
{"compound": "COc1nc2c(Oc3ncc(NC(=O)C4(C(=O)Nc5ccc(F)cc5)CC4)cc3F)ccnc2cc1OCC(O)CO", "note": "(centres unmarked) [Compound 127, 1-N′-[6-[[7-(2,3-Dihydroxypropoxy)-6-methoxy-1,5-naphthyridin-4-yl]oxy]-5-fluoropyridin-3-yl]-1-N-(4-fluorophenyl)cyclopropane-1,1-dicarboxamide]", "values": [{"measurement": "IC50", "setting": "AXL", "value": "10 to 100", "unit": "nM"}, {"measurement": "IC50", "setting": "Mer", "value": "100 to 300", "unit": "nM"}, {"measurement": "IC50", "setting": "Met", "value": "10 to 100", "unit": "nM"}, {"measurement": "IC50", "setting": "KDR", "value": "> 300", "unit": "nM"}]}
{"compound": "COc1nc2c(Oc3ccc(NC(=O)C4(C(=O)Nc5ccc(F)cc5)CC4)cn3)ncnc2cc1OCCCN1CCOCC1", "note": "[Compound 155, 1-N-(4-Fluorophenyl)-1-N′-[6-[6-methoxy-7-(3-morpholin-4-ylpropoxy)pyrido[3,2-d]pyrimidin-4-yl]oxypyridin-3-yl]cyclopropane-1,1-dicarboxamide]", "values": [{"measurement": "IC50", "setting": "AXL", "value": "10 to 100", "unit": "nM"}, {"measurement": "IC50", "setting": "Mer", "value": "100 to 300", "unit": "nM"}, {"measurement": "IC50", "setting": "Met", "value": "100 to 300", "unit": "nM"}, {"measurement": "IC50", "setting": "KDR", "value": "> 300", "unit": "nM"}]}
